Assay results published in the supplement of paper PMC4862054.

Experiments:
Details in all cases: incubation time: 72 h
HCC1143 = test: drug sensitivity score (DSS), CellTiter-Glo (DSS (AUC-based score)); higher = stronger drug effect (viability inhibition or cytotoxicity); extreme values may be limits of the assay
Procedure, shortened: (§1)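 For 72 h, breast cancer cell lines seeded at 20 µl suspension per well in 384-well plates were incubated with compound at 5 concentrations in 10-fold steps spanning a 10,000-fold range that differed by compound. The first reading was CellTox Green fluorescence at 485/520 nm, and the second was CellTiter-Glo luminescence after 10 min at room temperature. Both were normalised per plate to 0.1 % DMSO and a positive kill control, and the drug sensitivity score was obtained from the area under the fitted dose-response curve.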

HCC1937 = test: as above
Procedure, shortened: as §1

CAL-120 [1] = test: as above
Procedure, shortened: as §1

BT-474 [2] = test: as above
Procedure, shortened: as §1

MCF-10A = test: as above
Procedure, shortened: as §1

Hs578T [3] = test: as above
Procedure, shortened: as §1

CAL-51 [4] = test: as above
Procedure, shortened: as §1

CAL-148 [5] = test: as above
Procedure, shortened: as §1

CAL-85-1 [6] = test: as above
Procedure, shortened: as §1

MFM-223 [7] = test: as above
Procedure, shortened: as §1

MDA-MB-468 = test: normalised viability (% of control), CellTiter-Blue; higher = more viable cells (about 100 = DMSO control)
Procedure, shortened: (§2)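 Breast cancer cell lines were treated for 72 h in 384-well format and measured by CellTiter-Blue fluorescence at 560/590 nm. Results were normalised per plate to vehicle (100) and a positive kill control (0). The entry is normalised viability at a single listed concentration of the series.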

BT-549 = test: as above
Procedure, shortened: as §2

CAL-120 [8] = test: as above
Procedure, shortened: as §2

BT-474 [9] = test: as above
Procedure, shortened: as §2

DU-4475 = test: as above
Procedure, shortened: as §2

MDA-MB-231 = test: as above
Procedure, shortened: as §2

MDA-MB-453 = test: as above
Procedure, shortened: as §2

MDA-MB-436 = test: as above
Procedure, shortened: as §2

Hs578T [10] = test: as above
Procedure, shortened: as §2

HDQ-P1 = test: as above
Procedure, shortened: as §2

CAL-51 [11] = test: as above
Procedure, shortened: as §2

CAL-148 [12] = test: as above
Procedure, shortened: as §2

CAL-85-1 [13] = test: as above
Procedure, shortened: as §2

MFM-223 [14] = test: as above
Procedure, shortened: as §2

CN(c1ccccc1CNc1nc(Nc2ccc3c(c2)CC(=O)N3)ncc1C(F)(F)F)S(C)(=O)=O
drug sensitivity score (HCC1143): 4.97 | drug sensitivity score (HCC1937): 2.73 | drug sensitivity score (CAL-120 [1]): 4.65 | drug sensitivity score (BT-474 [2]): 7.07 | drug sensitivity score (MCF-10A): 9.21 | drug sensitivity score (Hs578T [3]): 4.29 | drug sensitivity score (CAL-51 [4]): 10.6 | drug sensitivity score (CAL-148 [5]): 1.24 | drug sensitivity score (CAL-85-1 [6]): 6.85 | drug sensitivity score (MFM-223 [7]): 2.28

COc1ncc(-c2ccc3nccc(-c4ccnnc4)c3c2)cc1NS(=O)(=O)c1ccc(F)cc1F
drug sensitivity score (HCC1143): 13.3 | drug sensitivity score (HCC1937): 10.6 | drug sensitivity score (CAL-120 [1]): 13 | drug sensitivity score (BT-474 [2]): 11.2 | drug sensitivity score (MCF-10A): 17.5 | drug sensitivity score (Hs578T [3]): 14 | drug sensitivity score (CAL-51 [4]): 15.8 | drug sensitivity score (CAL-148 [5]): 12.2 | drug sensitivity score (CAL-85-1 [6]): 16.4 | drug sensitivity score (MFM-223 [7]): 14.3 | normalised viability (MDA-MB-468; 1 nM): 92.9% | normalised viability (MDA-MB-468; 100 nM): 34.3% | normalised viability (MDA-MB-468; 1000 nM): 7.54% | normalised viability (BT-549; 1 nM): 88% | normalised viability (BT-549; 100 nM): 29.4% | normalised viability (BT-549; 1000 nM): 14.7% | normalised viability (CAL-120 [8]; 1 nM): 84.2% | normalised viability (CAL-120 [8]; 100 nM): 28.9% | normalised viability (CAL-120 [8]; 1000 nM): 16.1% | normalised viability (BT-474 [9]; 1 nM): 110% | normalised viability (BT-474 [9]; 100 nM): 19.2% | normalised viability (BT-474 [9]; 1000 nM): 6.63% | normalised viability (DU-4475; 0.3 nM): 87.5% | normalised viability (DU-4475; 3 nM): 94.4% | normalised viability (DU-4475; 10 nM): 82.1% | normalised viability (MDA-MB-231; 1 nM): 96.2% | normalised viability (MDA-MB-231; 100 nM): 41.2% | normalised viability (MDA-MB-231; 1000 nM): 23.7% | normalised viability (MDA-MB-453; 0.3 nM): 103% | normalised viability (MDA-MB-453; 3 nM): 67.2% | normalised viability (MDA-MB-453; 10 nM): 36.7% | normalised viability (MDA-MB-436; 1 nM): 105% | normalised viability (MDA-MB-436; 100 nM): 34.2% | normalised viability (MDA-MB-436; 1000 nM): 22.8% | normalised viability (Hs578T [10]; 1 nM): 107% | normalised viability (Hs578T [10]; 100 nM): 33.5% | normalised viability (Hs578T [10]; 1000 nM): 9.34% | normalised viability (HDQ-P1; 0.3 nM): 95.3% | normalised viability (HDQ-P1; 3 nM): 70.5% | normalised viability (HDQ-P1; 10 nM): 51.8% | normalised viability (CAL-51 [11]; 0.3 nM): 93.7% | normalised viability (CAL-51 [11]; 3 nM): 75.3% | normalised viability (CAL-51 [11]; 10 nM): 56.5% | normalised viability (CAL-148 [12]; 0.3 nM): 88.2% | normalised viability (CAL-148 [12]; 3 nM): 96.4% | normalised viability (CAL-148 [12]; 10 nM): 85.4% | normalised viability (CAL-85-1 [13]; 0.3 nM): 89.5% | normalised viability (CAL-85-1 [13]; 3 nM): 75.9% | normalised viability (CAL-85-1 [13]; 10 nM): 73.2% | normalised viability (MFM-223 [14]; 1 nM): 99.9% | normalised viability (MFM-223 [14]; 100 nM): 21.3% | normalised viability (MFM-223 [14]; 1000 nM): 14.6%

C[C@@]1(C(=O)Nc2ccc(F)nc2)CCCN1c1nc(Nc2cc(C3CC3)n[nH]2)c2cccn2n1
drug sensitivity score (HCC1143): 6.03 | drug sensitivity score (HCC1937): 0 | drug sensitivity score (CAL-120 [1]): 10.3 | drug sensitivity score (BT-474 [2]): 9.15 | drug sensitivity score (MCF-10A): 25 | drug sensitivity score (Hs578T [3]): 3.38 | drug sensitivity score (CAL-51 [4]): 9.26 | drug sensitivity score (CAL-148 [5]): 0 | drug sensitivity score (CAL-85-1 [6]): 10.7 | drug sensitivity score (MFM-223 [7]): 10.2 | normalised viability (MDA-MB-468; 10 nM): 115% | normalised viability (MDA-MB-468; 1000 nM): 61% | normalised viability (MDA-MB-468; 10000 nM): 40.7% | normalised viability (BT-549; 10 nM): 97.8% | normalised viability (BT-549; 1000 nM): 77.6% | normalised viability (BT-549; 10000 nM): 34.4% | normalised viability (CAL-120 [8]; 10 nM): 94% | normalised viability (CAL-120 [8]; 1000 nM): 63% | normalised viability (CAL-120 [8]; 10000 nM): 21.1% | normalised viability (BT-474 [9]; 10 nM): 109% | normalised viability (BT-474 [9]; 1000 nM): 87.6% | normalised viability (BT-474 [9]; 10000 nM): 82% | normalised viability (DU-4475; 3 nM): 97.3% | normalised viability (DU-4475; 30 nM): 91.7% | normalised viability (DU-4475; 100 nM): 83.8% | normalised viability (MDA-MB-231; 10 nM): 90.6% | normalised viability (MDA-MB-231; 1000 nM): 46% | normalised viability (MDA-MB-231; 10000 nM): 31.4% | normalised viability (MDA-MB-453; 3 nM): 100% | normalised viability (MDA-MB-453; 30 nM): 84% | normalised viability (MDA-MB-453; 100 nM): 105% | normalised viability (MDA-MB-436; 10 nM): 122% | normalised viability (MDA-MB-436; 1000 nM): 94.3% | normalised viability (MDA-MB-436; 10000 nM): 33.9% | normalised viability (Hs578T [10]; 10 nM): 114% | normalised viability (Hs578T [10]; 1000 nM): 75.8% | normalised viability (Hs578T [10]; 10000 nM): 38.1% | normalised viability (HDQ-P1; 3 nM): 120% | normalised viability (HDQ-P1; 30 nM): 82% | normalised viability (HDQ-P1; 100 nM): 73.5% | normalised viability (CAL-51 [11]; 3 nM): 99% | normalised viability (CAL-51 [11]; 30 nM): 97.4% | normalised viability (CAL-51 [11]; 100 nM): 84.9% | normalised viability (CAL-148 [12]; 3 nM): 88.5% | normalised viability (CAL-148 [12]; 30 nM): 99.1% | normalised viability (CAL-148 [12]; 100 nM): 95.1% | normalised viability (CAL-85-1 [13]; 3 nM): 92% | normalised viability (CAL-85-1 [13]; 30 nM): 75% | normalised viability (CAL-85-1 [13]; 100 nM): 87.9% | normalised viability (MFM-223 [14]; 10 nM): 88.5% | normalised viability (MFM-223 [14]; 1000 nM): 52.6% | normalised viability (MFM-223 [14]; 10000 nM): 25.3%

Nc1nccc(-c2c(-c3ccc(F)cc3)ncn2C2CCCCC2)n1
drug sensitivity score (HCC1143): 0 | drug sensitivity score (HCC1937): 0 | drug sensitivity score (CAL-120 [1]): 0 | drug sensitivity score (BT-474 [2]): 0.373 | drug sensitivity score (MCF-10A): 0.945 | drug sensitivity score (Hs578T [3]): 0 | drug sensitivity score (CAL-51 [4]): 0.055 | drug sensitivity score (CAL-148 [5]): 0 | drug sensitivity score (CAL-85-1 [6]): 0.583 | drug sensitivity score (MFM-223 [7]): 0

COc1c(C)cnc(Cn2cnc3c(Cl)nc(N)nc32)c1C [BIIB021]
drug sensitivity score (HCC1143): 11.5 | drug sensitivity score (HCC1937): 16.3 | drug sensitivity score (CAL-120 [1]): 10.1 | drug sensitivity score (BT-474 [2]): 12.4 | drug sensitivity score (MCF-10A): 15.5 | drug sensitivity score (Hs578T [3]): 8.9 | drug sensitivity score (CAL-51 [4]): 17.2 | drug sensitivity score (CAL-148 [5]): 15.8 | drug sensitivity score (CAL-85-1 [6]): 14.7 | drug sensitivity score (MFM-223 [7]): 13.2 | normalised viability (MDA-MB-468; 10 nM): 93.5% | normalised viability (MDA-MB-468; 1000 nM): 43.2% | normalised viability (MDA-MB-468; 10000 nM): 21.3% | normalised viability (BT-549; 10 nM): 87.8% | normalised viability (BT-549; 1000 nM): 36.5% | normalised viability (BT-549; 10000 nM): 31.1% | normalised viability (CAL-120 [8]; 10 nM): 84.1% | normalised viability (CAL-120 [8]; 1000 nM): 18.4% | normalised viability (CAL-120 [8]; 10000 nM): 15.2% | normalised viability (BT-474 [9]; 10 nM): 104% | normalised viability (BT-474 [9]; 1000 nM): 22.9% | normalised viability (BT-474 [9]; 10000 nM): 27.3% | normalised viability (DU-4475; 3 nM): 94.8% | normalised viability (DU-4475; 30 nM): 76.1% | normalised viability (DU-4475; 100 nM): 80.8% | normalised viability (MDA-MB-231; 10 nM): 86.1% | normalised viability (MDA-MB-231; 1000 nM): 34.1% | normalised viability (MDA-MB-231; 10000 nM): 23.8% | normalised viability (MDA-MB-453; 3 nM): 96.5% | normalised viability (MDA-MB-453; 30 nM): 79.5% | normalised viability (MDA-MB-453; 100 nM): 38.4% | normalised viability (MDA-MB-436; 10 nM): 92.5% | normalised viability (MDA-MB-436; 1000 nM): 43.5% | normalised viability (MDA-MB-436; 10000 nM): 25.5% | normalised viability (Hs578T [10]; 10 nM): 95.3% | normalised viability (Hs578T [10]; 1000 nM): 61% | normalised viability (Hs578T [10]; 10000 nM): 46.9% | normalised viability (HDQ-P1; 3 nM): 110% | normalised viability (HDQ-P1; 30 nM): 110% | normalised viability (HDQ-P1; 100 nM): 77.8% | normalised viability (CAL-51 [11]; 3 nM): 103% | normalised viability (CAL-51 [11]; 30 nM): 102% | normalised viability (CAL-51 [11]; 100 nM): 101% | normalised viability (CAL-148 [12]; 3 nM): 87% | normalised viability (CAL-148 [12]; 30 nM): 88.6% | normalised viability (CAL-148 [12]; 100 nM): 72.3% | normalised viability (CAL-85-1 [13]; 3 nM): 81% | normalised viability (CAL-85-1 [13]; 30 nM): 81.5% | normalised viability (CAL-85-1 [13]; 100 nM): 86.1% | normalised viability (MFM-223 [14]; 10 nM): 81.9% | normalised viability (MFM-223 [14]; 1000 nM): 23% | normalised viability (MFM-223 [14]; 10000 nM): 23.8%
